Consider nine compounds from US9096615B2, “Bridged bicyclic amino thiazine dioxide compounds as inhibitors of beta-secretase and methods of use thereof” (AMGEN INC., priority 2013, dated 2015).

The target of one test is T1, Cathepsin D (Cat D) (Homo sapiens, UniProt P07339).
T1 construct: made in house; host or cells: CHO cells
As to the kind of experiment: In vitro enzymatic Cathepsin D (Cat D) FRET assay. Format: biochemical. Particulars: average IC50; first procedure; read-out: CatD IC50. The method, boiled down: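 Fluorescence (500 nm excitation, 580 nm emission) was measured after Tris quench of a 1 h cleavage of 20 nM quenched peptide substrate. Before that, 9 nM CHO-expressed human Cat D sat with compound for 1 h at pH 3.5 (0.05 M citrate, 5 mM CHAPS, 10% DMSO final).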

Another test has as its system Abeta 40. Description: In vivo inhibition of beta-secretase: percent Abeta 40 reduction in CSF and brain. More on the design: species or system rat. Conditions: after 4 hrs; for inhibition in vivo at 10 mg/kg: 10 mpk. The essentials:
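Test compound was given by oral gavage in 2% HPMC, 1% Tween80, pH 2.2 (e.g., 30 mg/kg to male Sprague Dawley rats), or IV in 5% EtOH/45% propylene glycol in 5% dextrose. Four hours later, Abeta40 in CSF and in brain homogenate (DEA or Triton extraction) was measured by ECL sandwich ELISA (4G8 capture, Fab40 detection). Reduction is expressed relative to vehicle-treated animals.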

Another test concerns the target T2, human Bace2 protein (Homo sapiens, UniProt Q9Y5Z0).
T2 construct: V5 (C); 6-His (C)
T2 sequence (Q9Y5Z0 63-518): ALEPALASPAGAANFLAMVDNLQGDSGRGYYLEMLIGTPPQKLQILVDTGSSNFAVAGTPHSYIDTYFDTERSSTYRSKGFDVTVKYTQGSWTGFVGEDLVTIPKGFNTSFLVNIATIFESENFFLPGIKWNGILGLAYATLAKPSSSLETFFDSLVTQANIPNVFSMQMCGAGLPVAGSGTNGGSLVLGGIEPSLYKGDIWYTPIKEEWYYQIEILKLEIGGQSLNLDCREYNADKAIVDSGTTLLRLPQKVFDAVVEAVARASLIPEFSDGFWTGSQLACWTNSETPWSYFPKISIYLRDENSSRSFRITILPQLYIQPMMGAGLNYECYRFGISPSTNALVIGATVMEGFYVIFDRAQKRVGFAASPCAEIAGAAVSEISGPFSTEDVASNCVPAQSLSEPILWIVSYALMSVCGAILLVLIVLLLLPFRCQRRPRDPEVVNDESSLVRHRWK
Description: In vitro enzymatic BACE2 FRET assay. Format: biochemical. Particulars: average IC50; read-out: BACE2 Enzyme assay IC50. The essentials: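 Human Bace2 with C-terminal V5/6-His tag (0.2 nM) pre-incubated 1 h with inhibitor in 0.05 M acetate pH 4.2, 10% DMSO, 100 uM genapol; reaction started with 50 nM FRET peptide substrate, run 1 h. Stopped with Tris to neutral pH; fluorescence increase from substrate cleavage measured.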

[1] abbreviates: Abeta 40, rat CSF, read-out: % reduction of rat CSF levels at 10 pmk.
Setting [2] is: Abeta 40, rat brain, read-out: % reduction of rat brain levels at 10 mpk.

pIC50: −log10 of the molar value. Read-outs that look alike come from different tables or passages of the source.

T1 sequence (P07339 65-412, species assumed): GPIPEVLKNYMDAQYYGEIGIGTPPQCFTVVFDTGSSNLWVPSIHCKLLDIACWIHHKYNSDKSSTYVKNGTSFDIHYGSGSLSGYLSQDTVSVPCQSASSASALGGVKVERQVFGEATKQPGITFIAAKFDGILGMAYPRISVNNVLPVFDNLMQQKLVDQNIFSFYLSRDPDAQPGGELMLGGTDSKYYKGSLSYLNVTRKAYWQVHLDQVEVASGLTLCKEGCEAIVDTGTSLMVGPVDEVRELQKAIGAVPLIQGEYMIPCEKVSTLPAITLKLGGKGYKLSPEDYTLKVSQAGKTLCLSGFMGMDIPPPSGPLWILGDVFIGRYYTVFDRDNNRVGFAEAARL

Usually pIC50 stands for −log10 of the IC50, conventionally taken in molar units. With `Cc1cc(Cl)cnc1C(=O)Nc1ccc(F)c([C@@]2(C)N=C(N)[C@@]3(CF)CC[C@@H]2S3(=O)=O)c1` [Example 88, N-(3-((1S,2R,5R)-4-amino-5-(fluoromethyl)-2-methyl-8,8-dioxido-8-thia-3-azabicyclo[3.2.1]oct-3-en-2-yl)-4-fluorophenyl)-5-chloro-3-methyl-2-pyridinecarboxamide], the values for the negative-log IC50 (pIC50) at Cathepsin D (Cat D) and at human Bace2 protein were 3.16 and 9.10, respectively. The results for the inhibition in vivo at 10 mg/kg in the test on Abeta 40 (setting [1]) and with Abeta 40 (setting [2]) were 77% and 70%, respectively.
Regarding `Cc1cc(C#N)cnc1C(=O)Nc1ccc(F)c([C@@]2(C)N=C(N)[C@@]3(CF)CC[C@@H]2S3(=O)=O)c1` [Example 96, N-(3-((1S,2R,5R)-4-amino-5-(fluoromethyl)-2-methyl-8,8-dioxido-8-thia-3-azabicyclo[3.2.1]oct-3-en-2-yl)-4-fluorophenyl)-5-cyano-3-methyl-2-pyridinecarboxamide], the pIC50 at Cathepsin D (Cat D) was 3.13; at human Bace2 protein, 9.00. The “% reduction of rat CSF levels (3 mpk)” value in the test with Abeta 40 (Abeta 40, rat CSF, 3 mpk) is 60 (3 mpk) %. In the test on Abeta 40 (Abeta 40, rat brain, 3 mpk), the “% reduction of rat brain levels (3 mpk)” value was 39 (3 mpk) %.
For the compound `COc1cnc2c(Nc3ccc(F)c([C@@]4(C)N=C(N)[C@@]5(CF)CC[C@@H]4S5(=O)=O)c3)ncnc2c1` [Example 97, N-(3-((1S,2R,5R)-4-amino-5-(fluoromethyl)-2-methyl-8,8-dioxido-8-thia-3-azabicyclo[3.2.1]oct-3-en-2-yl)-4-fluorophenyl)-7-methoxypyrido[3,2-d]pyrimidin-4-amine], the pIC50 is 3.44 on Cathepsin D (Cat D) and 7.70 at human Bace2 protein. The inhibition in vivo at 10 mg/kg in the test with Abeta 40 (setting [1]) was found to be 75%; in the test with Abeta 40 (setting [2]), 76%.
Turning to `C[C@]1(c2cc(Nc3nccc4cc(C#N)cnc34)ccc2F)N=C(N)[C@@]2(CF)CC[C@@H]1S2(=O)=O` [Example 100, 8-((3-((1S,2R,5R)-4-amino-5-(fluoromethyl)-2-methyl-8,8-dioxido-8-thia-3-azabicyclo[3.2.1]oct-3-en-2-yl)-4-fluorophenyl)amino)-1,7-naphthyridine-3-carbonitrile], the results for the pIC50 on Cathepsin D (Cat D) and at human Bace2 protein were 3.47 and 9.22, respectively. Also, the inhibition in vivo at 10 mg/kg with Abeta 40 (setting [1]) is 67%; in the test on Abeta 40 (setting [2]), 59%.
As for `Cc1cc(OC(F)F)cnc1C(=O)Nc1ccc(F)c([C@@]2(C)N=C(N)[C@@]3(CF)CC[C@@H]2S3(=O)=O)c1` [Example 102, N-(3-((1S,2R,5R)-4-amino-5-(fluoromethyl)-2-methyl-8,8-dioxido-8-thia-3-azabicyclo[3.2.1]oct-3-en-2-yl)-4-fluorophenyl)-5-(difluoromethoxy)-3-methyl-2-pyridinecarboxamide], the negative logarithm of the IC50 (pIC50) at Cathepsin D (Cat D) is 3.35; at human Bace2 protein it was 8.10. For the same compound, the inhibition in vivo at 10 mg/kg in the test on Abeta 40 (setting [1]) was 67%; with Abeta 40 (setting [2]) it was 68%.
On to `C[C@]1(c2cc(Nc3nccc4nc(OCc5ncco5)cnc34)ccc2F)N=C(N)[C@@]2(CF)CC[C@@H]1S2(=O)=O` [Example 104, N-(3-((1S,2R,5R)-4-amino-5-(fluoromethyl)-2-methyl-8,8-dioxido-8-thia-3-azabicyclo[3.2.1]oct-3-en-2-yl)-4-fluorophenyl)-2-(1,3-oxazol-2-ylmethoxy)pyrido[3,4-b]pyrazin-5-amine], for which the pIC50 on Cathepsin D (Cat D) is 3.10; at human Bace2 protein, 8.52. Further, the values for the inhibition in vivo at 10 mg/kg in the test on Abeta 40 (setting [1]) and in the test with Abeta 40 (setting [2]) were 74% and 71%, respectively.
In the same order, the values of `C[C@]1(c2cc(Nc3ncnc4cc(C(F)(F)F)cnc34)ccc2F)N=C(N)[C@@]2(C)CC[C@@H]1S2(=O)=O` [Example 106, N-(3-((1S,2R,5R)-4-amino-2,5-dimethyl-8,8-dioxido-8-thia-3-azabicyclo[3.2.1]oct-3-en-2-yl)-4-fluorophenyl)-7-(trifluoromethyl)pyrido[3,2-d]pyrimidin-4-amine] are 3.50, 7.17, 59% and 29%.
For `COc1cnc2c(Nc3ccc(F)c([C@@]4(C)N=C(N)[C@@]5(C)CC[C@@H]4S5(=O)=O)c3)ncnc2c1` [Example 132, N-(3-((1S,2R,5R)-4-amino-2,5-dimethyl-8,8-dioxido-8-thia-3-azabicyclo[3.2.1]oct-3-en-2-yl)-4-fluorophenyl)-7-methoxypyrido[3,2-d]pyrimidin-4-amine], in that order: 3.02, 7.29, 70% and 50%.
In the same order, the values of `C[C@]1(c2cc(Nc3nccc4nc(OCc5ncco5)cnc34)ccc2F)N=C(N)[C@@]2(C)CC[C@@H]1S2(=O)=O` [Example 140, N-(3-((1S,2R,5R)-4-amino-2,5-dimethyl-8,8-dioxido-8-thia-3-azabicyclo[3.2.1]oct-3-en-2-yl)-4-fluorophenyl)-2-(1,3-oxazol-2-ylmethoxy)pyrido[3,4-b]pyrazin-5-amine] are 3.07, 7.70, 41% and 39%.
